Experiments:
Assay in all cases: selective drug sensitivity score (sDSS, relative to normal bone marrow) (sDSS (score)); higher = more potent and effective on the cell line relative to normal bone marrow cells
Conditions in all cases: 72 h
[1] = tested on: PF-382
[2] = tested on: 697
[3] = tested on: TANOUE
[4] = tested on: NALM-6
[5] = tested on: KASUMI-9
[6] = tested on: MOLT-14
[7] = tested on: JURKAT
[8] = tested on: P30-OHKUBO
[9] = tested on: NALL-1
[10] = tested on: COG-LL-319h
[11] = tested on: REH
[12] = tested on: NALM-16
[13] = tested on: CCRF-CEM
[14] = tested on: 380
[15] = tested on: MHH-CALL-3
[16] = tested on: COG-LL-355h
[17] = tested on: TMD5
[18] = tested on: MOLT-4
[19] = tested on: KARPAS-45
[20] = tested on: COG-LL-332h
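Note: ALL cell lines in 384-well plates, five doses spanning 10,000-fold, each plate scaled between vehicle and 100 µmol/L benzalkonium chloride controls, sDSS an adapted area-under-curve metric.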

| SMILES | selective drug sensitivity score [1] | selective drug sensitivity score [2] | selective drug sensitivity score [3] | selective drug sensitivity score [4] | selective drug sensitivity score [5] | selective drug sensitivity score [6] | selective drug sensitivity score [7] | selective drug sensitivity score [8] | selective drug sensitivity score [9] | selective drug sensitivity score [10] | selective drug sensitivity score [11] | selective drug sensitivity score [12] | selective drug sensitivity score [13] | selective drug sensitivity score [14] | selective drug sensitivity score [15] | selective drug sensitivity score [16] | selective drug sensitivity score [17] | selective drug sensitivity score [18] | selective drug sensitivity score [19] | selective drug sensitivity score [20] |
| --- | --- | --- | --- | --- | --- | --- | --- | --- | --- | --- | --- | --- | --- | --- | --- | --- | --- | --- | --- | --- |
| COc1cccc(OCCCN)c1-c1cc(Nc2cnc(C#N)cn2)n[nH]1 [Prexasertib] (top concentration 10000 nM) | 16.9 | 18.4 | -0.86 | 18.4 | 20.4 | 18.4 | 17.4 | 21.3 | 19.4 | 19.4 | 17 | 13.8 | 18.8 | 15.7 | 13.4 | 4.24 | 8.94 | 20.4 | 17.5 | 20.7 |
| C[C@]1(c2nc3c(C(N)=O)cccc3[nH]2)CCCN1 [Veliparib] (top concentration 10000 nM) | -4.08 | -1.08 | -4.18 | -2.48 | 1.72 | 0.22 | -3.28 | 4.42 | -4.18 | 1.02 | -4.18 | -4.18 | -4.18 | -2.78 | 0.42 | 2.82 | -4.18 | -2.88 | -4.18 | -1.48 |
| NC[C@@](O)(c1ccc(Cl)cc1)c1ccc(-c2cn[nH]c2)cc1 (top concentration 10000 nM) | 1.28 | 9.78 | -1.22 | 1.28 | 3.78 | -1.22 | 2.58 | 3.68 | -1.22 | 1.48 | 2.88 | -1.22 | 3.88 | 13.9 | 5.78 | 3.28 | 4.98 | -0.42 | 2.78 | 2.68 |
| COc1ccc(Cn2ccc3ccc(C(=O)NO)cc32)cc1 (top concentration 10000 nM) | 1.84 | 4.34 | 1.34 | 1.54 | 2.24 | 5.64 | 2.84 | 2.24 | -0.86 | 8.04 | 2.54 | 2.44 | 3.34 | 10.2 | 1.74 | 0.74 | -0.96 | 1.44 | 2.94 | 8.14 |
| Cn1nccc1Nc1nccc(-c2ccn([C@H](CO)c3ccc(Cl)c(F)c3)c(=O)c2)n1 [Ravoxertinib] (top concentration 10000 nM) | 1.2 | 1.5 | -3.2 | 4 | 5.3 | 0.1 | -0.8 | 3.5 | 10 | 10.2 | 1.2 | -1.6 | 2 | 4.9 | 9.7 | 7.7 | 3.2 | -1.2 | 2.4 | 4.1 |
| COc1cccc2c1C(=O)c1c(O)c3c(c(O)c1C2=O)C[C@@](O)(C(=O)CO)C[C@@H]3O[C@H]1C[C@H](N)[C@H](O)[C@H](C)O1 [Doxorubicin] (top concentration 1000 nM) | 3.08 | 9.88 | -7.62 | 3.38 | 7.48 | 13.8 | 2.78 | 5.18 | -1.92 | 13.4 | 9.28 | -1.82 | 7.28 | 11.9 | 14.8 | 3.98 | 3.18 | 10.5 | 0.78 | 11.3 |
| O=C(Nc1cc(Oc2cc(F)c(NC(=O)C3(C(=O)Nc4ccc(F)cc4)CC3)cc2F)ccn1)C1CC1 [Altiratinib] (top concentration 10000 nM) | 0.64 | 4.24 | -2.56 | 1.34 | -0.16 | -0.36 | 0.84 | 1.84 | 4.14 | 2.84 | 3.84 | -2.56 | -0.16 | -0.86 | -4.86 | -0.36 | 3.24 | 0.24 | 2.74 | 3.84 |
| N#CCNC(=O)c1ccc(-c2ccnc(Nc3ccc(N4CCOCC4)cc3)n2)cc1 [Momelotinib] (top concentration 10000 nM) | -3.42 | 2.68 | -9.62 | -0.32 | -0.12 | -3.92 | -5.12 | 1.58 | -6.72 | 0.28 | -4.82 | -8.32 | -2.52 | -9.62 | -9.42 | -0.92 | -4.72 | -4.72 | 0.18 | -0.82 |
| Cc1ccc(C(=O)Nc2ccc(Oc3cc4cnn(C)c4cc3-c3cn[nH]c3)c(F)c2)c(=O)n1-c1ccc(F)cc1 [Merestinib] (top concentration 1000 nM) | -0.62 | 0.48 | -0.62 | -0.62 | 0.18 | -0.62 | -0.62 | 0.88 | 8.28 | -0.62 | -0.62 | 2.58 | -0.62 | -0.62 | -0.62 | -0.62 | -0.62 | -0.62 | -0.62 | -0.62 |
| COc1cc(N2CCC(N3CCN(C)CC3)CC2)ccc1Nc1ncc(Cl)c(Nc2ccccc2P(C)(C)=O)n1 [Brigatinib] (top concentration 1000 nM) | -2.84 | -1.84 | -3.34 | 0.26 | 3.56 | 3.16 | -3.34 | -3.34 | -3.34 | 3.26 | -3.34 | -3.14 | -3.34 | -3.34 | -3.34 | 2.86 | -2.04 | 0.36 | -1.74 | -3.34 |
| CC(C)c1cc(-c2n[nH]c(=O)n2-c2ccc3c(ccn3C)c2)c(O)cc1O [Ganetespib] (top concentration 1000 nM) | 1.64 | 1.24 | -8.36 | 2.34 | 0.14 | 1.74 | -2.46 | 2.24 | -1.86 | 1.14 | 0.54 | -2.76 | 2.04 | 2.74 | 6.64 | 1.34 | -5.36 | 3.14 | -0.26 | 6.64 |
| C/C=C1\NC(=O)[C@H]2CSSCC/C=C/[C@H](CC(=O)N[C@H](C(C)C)C(=O)N2)OC(=O)[C@H](C(C)C)NC1=O [Romidepsin] (top concentration 1000 nM) | 1.96 | 3.16 | -11 | 2.66 | 3.16 | 2.16 | 2.06 | 1.66 | 2.06 | 1.16 | 1.26 | 0.76 | 1.16 | 8.56 | 9.76 | -0.54 | 3.46 | 1.76 | 2.86 | 1.36 |
| CCCCc1nc2cc(/C=C/C(=O)NO)ccc2n1CCN(CC)CC [Pracinostat] (top concentration 10000 nM) | 3.38 | 7.68 | -7.72 | 2.78 | 8.18 | 6.18 | 2.48 | 5.68 | 3.18 | 10.1 | 0.38 | 0.98 | 4.68 | 13.2 | 16.5 | 3.58 | 5.78 | 3.48 | 9.78 | 0.58 |
| COc1cc(Nc2ncc(F)c(Nc3ccc4c(n3)N(COP(=O)(O)O)C(=O)C(C)(C)O4)n2)cc(OC)c1OC [Fostamatinib] (top concentration 2500 nM) | -1.14 | 3.16 | -1.94 | 2.96 | 1.76 | -0.34 | -2.14 | 2.96 | -2.64 | 15.3 | -1.84 | -1.44 | -2.34 | -2.84 | -1.44 | 1.96 | -2.84 | -2.04 | 4.56 | -0.44 |
| COC[C@H](NC(=O)c1cnc(C)s1)C(=O)N[C@@H](COC)C(=O)N[C@@H](Cc1ccccc1)C(=O)[C@@]1(C)CO1 [Oprozomib] (top concentration 2500 nM) | 11.3 | 0.2 | -8.7 | -0.4 | 3.2 | 2.8 | 0.3 | 5.7 | 0.9 | 3.5 | -0.4 | 1.9 | 6.9 | 0.3 | 3.3 | 8.4 | -1.6 | 12.6 | 4.6 | 10.6 |
| COc1cc2c(Oc3ccc(NC(=O)C4(C(=O)Nc5ccc(F)cc5)CC4)cc3F)ccnc2cc1OCCCN1CCOCC1 [Foretinib] (top concentration 1000 nM) | 0.34 | 2.24 | -4.46 | 0.74 | -0.06 | 1.94 | -4.36 | 0.54 | 1.74 | 3.44 | 0.24 | 1.04 | 0.64 | -0.56 | -3.56 | 0.34 | 2.64 | 0.64 | 2.44 | 4.74 |
| C[C@@H](Oc1ccc2[nH]nc(/C=C/c3cnn(CCO)c3)c2c1)c1c(Cl)cncc1Cl (top concentration 1000 nM) | -2.14 | 1.96 | -7.04 | 7.16 | -1.54 | -0.94 | -4.84 | 6.06 | -1.74 | 4.66 | -0.64 | -1.44 | -2.74 | -1.34 | -7.04 | 0.36 | -0.74 | -0.54 | 0.56 | 1.96 |
| O=C(NC1CCNCC1)c1n[nH]cc1NC(=O)c1c(Cl)cccc1Cl [AT7519] (top concentration 10000 nM) | -7.16 | -2.46 | -17.8 | -2.76 | -3.66 | -3.86 | -10.7 | -2.96 | -8.16 | -4.26 | -2.16 | -8.16 | -3.46 | -4.86 | -4.56 | 2.74 | -4.16 | -7.66 | -4.16 | -5.06 |

From the supplement of paper PMC8967900
